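Cultured in 96-well plates, cells were exposed to test compound for 48 hours across five concentrations. TGI is the concentration that stops growth completely.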
Tests used:
Test in all cases: NCI anticancer screen, dose series, 48 h
SF-539 CNS = test system: SF-539 CNS
NCI-H522 lung = test system: NCI-H522 lung
M14 melanoma = test system: M14 melanoma
HCT-15 colon = test system: HCT-15 colon
IGROV1 ovarian = test system: IGROV1 ovarian
OVCAR-3 ovarian = test system: OVCAR-3 ovarian
UACC-62 melanoma = test system: UACC-62 melanoma
OVCAR-8 ovarian = test system: OVCAR-8 ovarian
OVCAR-4 ovarian = test system: OVCAR-4 ovarian
NCI-H460 lung = test system: NCI-H460 lung
ACHN renal = test system: ACHN renal
HT29 colon = test system: HT29 colon
PC-3 prostate = test system: PC-3 prostate
NCI-H23 lung = test system: NCI-H23 lung
HS 578T breast = test system: HS 578T breast
SK-OV-3 ovarian = test system: SK-OV-3 ovarian
SN12C renal = test system: SN12C renal
A549 NSCLC = test system: A549 NSCLC
SK-MEL-2 melanoma = test system: SK-MEL-2 melanoma
CAKI-1 renal = test system: CAKI-1 renal
HCT-116 colon = test system: HCT-116 colon
UO-31 renal = test system: UO-31 renal
SF-268 CNS = test system: SF-268 CNS
UACC-257 melanoma = test system: UACC-257 melanoma
LOX IMVI melanoma = test system: LOX IMVI melanoma
U251 CNS = test system: U251 CNS
MDA-MB-231 breast = test system: MDA-MB-231 breast
MDA-N = test system: MDA-N
COLO 205 colon = test system: COLO 205 colon
HOP-62 NSCLC = test system: HOP-62 NSCLC
SW-620 colon = test system: SW-620 colon
EKVX NSCLC = test system: EKVX NSCLC
SK-MEL-28 melanoma = test system: SK-MEL-28 melanoma
T-47D breast = test system: T-47D breast
A498 renal = test system: A498 renal
SF-295 CNS = test system: SF-295 CNS
HOP-92 NSCLC = test system: HOP-92 NSCLC
TK-10 renal = test system: TK-10 renal
BT-549 breast = test system: BT-549 breast
SNB-75 CNS = test system: SNB-75 CNS
SK-MEL-5 melanoma = test system: SK-MEL-5 melanoma
NCI-H226 lung = test system: NCI-H226 lung
MALME-3M melanoma = test system: MALME-3M melanoma
DU-145 prostate = test system: DU-145 prostate
RXF 393 renal = test system: RXF 393 renal
K-562 leukemia = test system: K-562 leukemia
OVCAR-5 ovarian = test system: OVCAR-5 ovarian
RPMI-8226 leukemia = test system: RPMI-8226 leukemia
SNB-19 CNS = test system: SNB-19 CNS
MCF7 breast = test system: MCF7 breast
KM12 colon = test system: KM12 colon
786-0 renal = test system: 786-0 renal
NCI/ADR-RES ovarian = test system: NCI/ADR-RES ovarian
MDA-MB-435 = test system: MDA-MB-435
HCC-2998 colon = test system: HCC-2998 colon
MOLT-4 leukemia = test system: MOLT-4 leukemia
CCRF-CEM leukemia = test system: CCRF-CEM leukemia

c1cc(NNc2cccc(-c3nn[nH]n3)c2)cc(-c2nn[nH]n2)c1 was tested, and the TGI (SF-539 CNS) was greater than 100 µM, the TGI (NCI-H522 lung) was greater than 100 µM and the TGI (M14 melanoma) was greater than 100 µM. For the same compound, the TGI (HCT-15 colon) was greater than 100 µM, the TGI (IGROV1 ovarian) was greater than 100 µM and the TGI (OVCAR-3 ovarian) was greater than 100 µM. The TGI (UACC-62 melanoma) was greater than 100 µM, the TGI (OVCAR-8 ovarian) was greater than 100 µM and the TGI (OVCAR-4 ovarian) was greater than 100 µM. It also gave a TGI (NCI-H460 lung) greater than 100 µM, a TGI (ACHN renal) greater than 100 µM and a TGI (HT29 colon) greater than 100 µM. The TGI (PC-3 prostate) was greater than 100 µM, the TGI (NCI-H23 lung) was greater than 100 µM and the TGI (HS 578T breast) was greater than 100 µM. For the same compound, the TGI (SK-OV-3 ovarian) was greater than 100 µM, the TGI (SN12C renal) was greater than 100 µM and the TGI (A549 NSCLC) was greater than 100 µM. It also gave a TGI (SK-MEL-2 melanoma) greater than 100 µM, a TGI (CAKI-1 renal) greater than 100 µM and a TGI (HCT-116 colon) greater than 100 µM. It also gave a TGI (UO-31 renal) greater than 100 µM, a TGI (SF-268 CNS) greater than 100 µM and a TGI (UACC-257 melanoma) greater than 100 µM. It also gave a TGI (LOX IMVI melanoma) greater than 100 µM, a TGI (U251 CNS) greater than 100 µM and a TGI (MDA-MB-231 breast) greater than 100 µM. It also gave a TGI (MDA-N) greater than 100 µM, a TGI (COLO 205 colon) greater than 100 µM and a TGI (HOP-62 NSCLC) greater than 100 µM. It also gave a TGI (SW-620 colon) greater than 100 µM, a TGI (EKVX NSCLC) greater than 100 µM and a TGI (SK-MEL-28 melanoma) greater than 100 µM. The TGI (T-47D breast) was greater than 100 µM, the TGI (A498 renal) was greater than 100 µM and the TGI (SF-295 CNS) was greater than 100 µM. The TGI (HOP-92 NSCLC) was greater than 100 µM, the TGI (TK-10 renal) was greater than 100 µM and the TGI (BT-549 breast) was greater than 100 µM. The TGI (SNB-75 CNS) was greater than 100 µM, the TGI (SK-MEL-5 melanoma) was greater than 100 µM and the TGI (NCI-H226 lung) was greater than 100 µM. The TGI (MALME-3M melanoma) was greater than 100 µM, the TGI (DU-145 prostate) was greater than 100 µM and the TGI (RXF 393 renal) was greater than 100 µM. It also gave a TGI (K-562 leukemia) greater than 100 µM, a TGI (OVCAR-5 ovarian) greater than 100 µM and a TGI (RPMI-8226 leukemia) greater than 100 µM. The TGI (SNB-19 CNS) was greater than 100 µM, the TGI (MCF7 breast) was greater than 100 µM and the TGI (KM12 colon) was greater than 100 µM. It also gave a TGI (786-0 renal) greater than 100 µM, a TGI (NCI/ADR-RES ovarian) greater than 100 µM and a TGI (MDA-MB-435) greater than 100 µM.
In the case of O=C1C[C@H](c2ccccc2)O[C@@H](c2ccccc2)C1, the TGI (SF-539 CNS) was greater than 100 µM, the TGI (M14 melanoma) was greater than 100 µM and the TGI (HCT-15 colon) was greater than 100 µM. For the same compound, the TGI (IGROV1 ovarian) was greater than 100 µM, the TGI (OVCAR-3 ovarian) was greater than 100 µM and the TGI (UACC-62 melanoma) was greater than 100 µM. For the same compound, the TGI (OVCAR-8 ovarian) was greater than 100 µM, the TGI (OVCAR-4 ovarian) was greater than 100 µM and the TGI (NCI-H460 lung) was greater than 100 µM. The TGI (HT29 colon) was greater than 100 µM, the TGI (PC-3 prostate) was greater than 100 µM and the TGI (NCI-H23 lung) was greater than 100 µM. For the same compound, the TGI (HS 578T breast) was greater than 100 µM, the TGI (SK-OV-3 ovarian) was greater than 100 µM and the TGI (SN12C renal) was greater than 100 µM. For the same compound, the TGI (A549 NSCLC) was greater than 100 µM, the TGI (SK-MEL-2 melanoma) was greater than 100 µM and the TGI (CAKI-1 renal) was greater than 100 µM. For the same compound, the TGI (HCT-116 colon) was greater than 100 µM, the TGI (UO-31 renal) was greater than 100 µM and the TGI (SF-268 CNS) was greater than 100 µM. It also gave a TGI (UACC-257 melanoma) greater than 100 µM, a TGI (LOX IMVI melanoma) greater than 100 µM and a TGI (U251 CNS) greater than 100 µM. It also gave a TGI (MDA-MB-231 breast) greater than 100 µM, a TGI (MDA-N) greater than 100 µM and a TGI (COLO 205 colon) greater than 100 µM. The TGI (HOP-62 NSCLC) was greater than 100 µM, the TGI (SW-620 colon) was greater than 100 µM and the TGI (EKVX NSCLC) was greater than 100 µM. The TGI (SK-MEL-28 melanoma) was greater than 100 µM, the TGI (HCC-2998 colon) was greater than 100 µM and the TGI (T-47D breast) was greater than 100 µM. The TGI (SF-295 CNS) was greater than 100 µM, the TGI (HOP-92 NSCLC) was greater than 100 µM and the TGI (BT-549 breast) was greater than 100 µM. For the same compound, the TGI (SNB-75 CNS) was greater than 100 µM, the TGI (SK-MEL-5 melanoma) was greater than 100 µM and the TGI (NCI-H226 lung) was greater than 100 µM. For the same compound, the TGI (MALME-3M melanoma) was greater than 100 µM, the TGI (DU-145 prostate) was greater than 100 µM and the TGI (MOLT-4 leukemia) was greater than 100 µM. For the same compound, the TGI (RXF 393 renal) was greater than 100 µM, the TGI (K-562 leukemia) was 72.3 µM and the TGI (OVCAR-5 ovarian) was greater than 100 µM. It also gave a TGI (RPMI-8226 leukemia) greater than 100 µM, a TGI (CCRF-CEM leukemia) greater than 100 µM and a TGI (SNB-19 CNS) greater than 100 µM. It also gave a TGI (MCF7 breast) greater than 100 µM, a TGI (KM12 colon) greater than 100 µM and a TGI (786-0 renal) greater than 100 µM. The TGI (NCI/ADR-RES ovarian) was greater than 100 µM and the TGI (MDA-MB-435) was greater than 100 µM.

— PubChem BioAssay (NCI)
